Reference: PMC8595862 (Environmental toxicology and pharmacology, 2021)
Structures can show the parent of a compound that is named as a salt.

Experiments:
[1] = tested on: human hepatic microsomal sulfatase; assay: Human hepatic microsomal sulfatase assay; format: in vitro ADME; settings: relative to DHEA sulfate
[2] = human cohort exposed to PCBs; calculated; ref Quinete et al., 2017; cited from earlier work
[3] = rats, 0.6 mg/kg intravenous injection; ref Grimm et al., 2015a; cited from earlier work

Row | SMILES | Catalytic efficiency compared with DHEA sulfate [1] | Plasma half-life [2] | further results
1 | O=S(=O)(O)Oc1cc(Cl)c(-c2cc(Cl)ccc2Cl)cc1Cl [4-PCB 52 Sulfate, 2,2’,5,5’-tetrachloro-4-biphenylsulfate] | over 20 times |  | 
2 | Clc1ccc(-c2ccc(Cl)cc2Cl)cc1 [PCB 28, 2,4,4’-trichlorobiphenyl] |  | 4.32 years | 
3 | O=S(=O)(O)Oc1ccc(-c2cccc(Cl)c2)cc1Cl [4-PCB 11 Sulfate, 3,3’-dichloro-4-biphenylsulfate] |  |  | Tissue uptake, metabolism and urinary excretion [3]: taken up by tissues and further metabolized, with only a small percentage excreted in the urine
4 | Oc1ccc(-c2ccc(Cl)cc2Cl)cc1Cl [4’-OH-PCB 25, 2,3’,4-trichloro-4’-hydroxybiphenyl] |  | 6.46 years | 
5 | O=S(=O)(O)Oc1ccc(-c2ccc(Cl)c(Cl)c2)cc1 [4’-PCB 12 Sulfate, 3,4-dichloro-4’-biphenylsulfate] | the same as DHEA sulfate |  | 
